Assay results taken from EPA's ToxValDB 9.5 (doi:10.2903/j.efsa.2014.3485).
Values after ≈ are worked out from the molar mass of the structure shown.

Columns and labels:
Colinus virginianus = conditions: oral
Rattus norvegicus = conditions: oral; for LD50: acute, mortality
Typhlodromus pyri = test: LR50; higher = less toxic; conditions: not reported; mortality
Neomysis kadiakensis = conditions: chronic/long-term; duration: 28 days; reproduction
Canidae = conditions: chronic; duration: 1 years; oral; Dog Other; histopathology: nonneoplastic
Mus musculus = conditions: developmental; development
Daphnia magna = conditions: chronic/long-term; duration: 21 days; reproduction
Hypoaspis aculeifer = conditions: chronic/long-term
Apis mellifera = conditions: acute, duration: 48 hours, mortality
[1] = reproduction developmental, diet, reproduction

NC(Cc1ncn[nH]1)C(=O)O (stereo not given) [1,2,4-Triazole-3-alanine]
LC50 (Colinus virginianus; acute, diet, mortality): > 1370 mg/kg-day
LD50 (Rattus norvegicus): > 5000 mg/kg-day

CC(C)(C)C(O)(CCc1ccc(Cl)cc1)Cn1cncn1 (stereo not given) [Tebuconazole]
LR50 (Typhlodromus pyri): 58 g/ha
LC50 (Tagia sp.; acute, duration: 14 days, mortality): 1380 mg/kg
NOEC (Tagia sp.; chronic/long-term, duration: 56 days, reproduction): 10 mg/kg
NOEC (Neomysis kadiakensis): 0.035 mg/L
LC50 (Oncorhynchus mykiss; acute, duration: 96 hours, mortality): 4.4 µg/mL (≈ 14.3 µM)
NOEC (Oncorhynchus mykiss; chronic/long-term, duration: 83 days, growth): 0.012 mg/L
NOAEL (Canidae): 3 mg/kg-day
LC50 (Colinus virginianus; acute, diet, mortality): > 703 mg/kg-day
LD50 (Colinus virginianus; acute, mortality): 1990 mg/kg-day
LOEL (Colinus virginianus; [1]): 12.4 mg/kg-day
NOEL (Colinus virginianus; [1]): 5.8 mg/kg-day
LOAEL (Mus musculus): 10 mg/kg-day
NOEC (Daphnia magna): 0.01 mg/L
NOEC (Hypoaspis aculeifer): 50 mg/kg
LD50 (Rattus norvegicus): 1700 mg/kg-day
NOEL (Rattus norvegicus; reproduction developmental, diet, body weight): 10 mg/kg-day
LD50 (Apis mellifera; dermal): > 200 µg/piece
LD50 (Apis mellifera; oral, unspecified): > 83 µg/piece
